The experiment has as its target T1, human QRFP receptor (GPR103) (Homo sapiens, UniProt Q96P65).
T1 construct: expressed in transfected cells; host or cells: CHO-K1 NFAT beta-lactamase (Aurora); membrane sample
T1 sequence (Q96P65 1-431): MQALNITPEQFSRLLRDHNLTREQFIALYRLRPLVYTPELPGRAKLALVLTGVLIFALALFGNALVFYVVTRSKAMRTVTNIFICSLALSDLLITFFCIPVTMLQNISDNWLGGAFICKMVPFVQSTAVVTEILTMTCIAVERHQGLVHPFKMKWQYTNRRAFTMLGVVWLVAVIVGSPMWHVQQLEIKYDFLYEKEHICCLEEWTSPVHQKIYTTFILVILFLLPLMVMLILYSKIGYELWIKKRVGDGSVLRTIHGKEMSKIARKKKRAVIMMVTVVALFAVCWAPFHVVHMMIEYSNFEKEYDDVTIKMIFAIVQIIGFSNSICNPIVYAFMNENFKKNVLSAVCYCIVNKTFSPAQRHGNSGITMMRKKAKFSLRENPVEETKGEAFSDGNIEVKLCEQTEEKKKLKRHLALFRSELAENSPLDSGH
The experiment can be described thus: QRFP43-binding inhibitory test. The following applies: inhibition of specific [125I]QRFP43 binding; membranes of CHO-K1 cells expressing GPR103; 25° C., 1 hour. The source says:
A cDNA sequence [Accession No. NM_198179] coding for a human QRFP receptor (GPR103) was cloned in an expression vector pEF1V5-HisB (by Invitrogen). The resulting expression vector was transfected in a host cell CHO-K1 NFAT (3-Lactamase (by Aurora), according to a cationic lipid process [see Proceedings of the National Academy of Sciences of the United States of America, Vol. 84, p. 7413, 1987], thereby producing a QRFP receptor (GPR103).
A membrane sample prepared from the cells having expressed a QRFP receptor (GPR103) was incubated in an assay buffer (50 mM Tris-HCl, 1 mM EDTA and 0.1% BSA, pH 7.4) along with a test compound and 20,000 cpm [^125I] QRFP43 (by Perkin Elmer) therein, at 25° C. for 1 hour, and then filtered through a glass filter GF/C. After washed with 50 mM Tris-HCl (containing 2 mM EDTA, 10 mM MgCl2 and 0.04% Tween-20) buffer (pH 7.4), the radioactivity on the glass filter was determined. The non-specific binding was determined in the presence of 1 μM peptide QRFP43, and the 50% inhibitory concentration (IC50) of the test compound to the specific [^125I] QRFP43 binding was computed [see Endocrinology, Vol. 131, p. 2090, 1992].

The structures appear in SMILES notation.

In general, IC50 refers to the concentration needed to halve the response being measured. Lower therefore signals greater potency. In turn, `O=C(NCCCCC(c1ccco1)N1CCCC1)c1[nH]c2ccc(Cl)cc2c1-c1ccoc1` (racemic) [Example 8, 5-chloro-3-(3-fury)-N-[5-(2-furyl)-5-pyrrolidin-1-ylpentyl]-1H-indole-2-carboxamide] showed an IC50 of 0.58 nM.

The molecule `CN1CCN(CCNC(=O)c2[nH]c3ccc(Cl)cc3c2-c2cccs2)CC1` [Example 3, 5-chloro-N-[2-(4-methylpiperazin-1-yl)ethyl]-3-(2-thienyl)-1H-indole-2-carboxamide] yielded an IC50 of 4.68 nM.

`CN1CCN(CCNC(=O)c2[nH]c3ccc(Cl)cc3c2-c2cscn2)CC1` [Example 4, 5-chloro-N-[2-(4-methylpiperazin-1-yl)ethyl]-3-(1,3-thiazol-4-yl)-1H-indole-2-carboxamide] registered an IC50 of 14.2 nM.

In turn, `CNC(CCCCNC(=O)c1[nH]c2ccccc2c1-c1ccoc1)c1ccccn1` (single isomer, unassigned) [Example 9, 3-(3-fury)-N-[5-(methylamino)-5-pyridin-2-ylpentyl]-1H-indole-2-carboxamide] displayed an IC50 of 1.06 nM.

`CN1CCC(CCNC(=O)c2[nH]c3ccc(Cl)cc3c2-c2ccoc2)CC1` [Example 6, 5-chloro-3-(3-fury)-N-[2-(1-methylpiperidin-4-yl)ethyl]-1H-indole-2-carboxamide] showed a 50% inhibitory concentration (IC50) of 6.24 nM. `CN1CCN(CCNC(=O)c2[nH]c3ccc(Cl)cc3c2-c2ccccc2)CC1` [Example 5, 5-chloro-N-[2-(4-methylpiperazin-1-yl)ethyl]-3-phenyl-1H-indole-2-carboxamide] gave an IC50 of 11.4 nM. Regarding `CN1CC[C@H]2C[C@H](NC(=O)c3[nH]c4ccc(Cl)cc4c3-c3ccoc3)CC[C@@H]2C1` (single isomer, unassigned) [Example 7, 5-chloro-3-(3-fury)-N-(2-methyldecahydroisoquinolin-6-yl)-1H-indole-2-carboxamide], the IC50 turned out to be 9.82 nM. In turn, `CN1CCN(CCNC(=O)c2[nH]c3ccc(Cl)cc3c2-c2ccsc2)CC1` [Example 2, 5-chloro-N-[2-(4-methylpiperazin-1-yl)ethyl]-3-(3-thienyl)-1H-indole-2-carboxamide] gave an IC50 of 4.71 nM.

Molecule `CN1CCN(CCNC(=O)c2[nH]c3ccc(Cl)cc3c2-c2ccoc2)CC1` [Example 1, 5-chloro-3-(3-fury)-N-[2-(4-methylpiperazin-1-yl)ethyl]-1H-indole-2-carboxamide] yielded an IC50 of 2.26 nM.

`CN1CC[C@H]2C[C@H](NC(=O)c3cc4cc(Cl)ccc4n3C)CC[C@@H]2C1` (single isomer, unassigned) [Reference example 1, 5-chloro-1-methyl-N-(2-methyldecahydroisoquinolin-6-yl)-1H-indole-2-carboxamide]: the IC50 was determined as 22.6 nM.

The values are drawn from patent US20120028990A1, “3 ARYL OR HETEROARYL-SUBSTITUTED INDOLE DERIVATIVE” (MSD K.K, priority 2010, published 2012).
